Earlier results as cited in US4127520A, “Novel nonadecapeptides, intermediates therefor, and compositions and methods employing said nonadecapeptides” (priority 1977, dated 1978).

Assays:
[1] = test system: partially purified brain opiate receptor sites; conditions: natural peptide
[2] = injected directly into the brain of the rat

Q: For “H-Tyr-Gly-Gly-Phe-Met-OH [methionine enkephalin]”, which “binding to partially purified brain opiate receptor sites” value [1] is on record?
A: binds stereo-specifically

Q: And the analgesic activity [2]?
A: only weak analgesic agent of short duration
